Test results as given in US20250000864A1, “GONADOTROPIN-RELEASING HORMONE ANTAGONIST, AND PREPARATION METHOD THEREFOR AND USE THEREOF” (SHANDONG LUYE PHARMACEUTICAL CO., LTD., priority 2021, published 2025).
Where two headings read alike, the source gives them in different places.

Tests used:
[1] = Pharmacokinetics in SD rats (i.v. and i.g.); type: in vivo; settings: for bioavailability: read-out: F (absolute bioavailability)
Experimental: Instrument: water purification equipment, Millipore; electronic balance, METTLER TOLEDO; high-speed benchtop centrifuge, Thermo; water bath thermostatic oscillator, Shanghai Yiheng Technical Co., Ltd.; vortex oscillator, Thermo; LC-MS/MS, AB SCIEX.
Method: all compounds were formulated in DMSO and 20% solutol. In the pharmacokinetic experiment, the administration dose for the intravenous group (i.v) was 1 mg/kg, and the administration dose for the intragastric group (i.g) was 12 mg/kg, each group containing 3 rats. Blood was collected from the orbit of the rats before (0 h) the administration and at set time points after administration. In the tissue distribution experiment, the rats were subjected to intragastric administration at a dose of 12 mg/kg. […] The […] in a heparinized EP tube and centrifuged at 13,500 rpm for 10 min to isolate the plasma. The pituitary was homogenized with water in a certain proportion. The plasma and pituitary homogenates were pre-treated and then analyzed by LC-MS/MS to determine the concentration of the test substances in the plasma and the pituitary. The plasma drug concentration data were processed in a non-compartmental model using WinNonlin™ Version 6.3 (Pharsight, Mountain View, CA) pharmacokinetic software.

[2] = Metabolic stability in rat liver microsomes; type: in vitro ADME, SD rat; settings: for Residual content at 60 min / CLint scaled / half-life / microsomal CLint / CLint(liver): Rat liver microsomes; for Residual content at 60 min: NADPH, 37° C.; for CLint scaled / half-life / microsomal CLint: Sprague-Dawley (SD); for microsomal CLint: read-out: CLint(mic)
Experimental: (§1) Liver Microsome: Rat Liver Microsome and Human Liver Microsome Reagent: NADPH, Roche Diagnostics Gmbh; ACN, Merck Chemical; Tolbutamide, Sigma. Instrument: water purification equipment, Millipore; electronic balance, METTLER TOLEDO; high-speed benchtop centrifuge, Thermo; water bath thermostatic oscillator, Shanghai Yiheng Technical Co., Ltd.; vortex oscillator, Thermo; LC-MS/MS, AB SCIEX. Method: the metabolic stability of test substances was evaluated by using SD rat and human liver microsomes. The test substances were incubated with liver microsomes from different species by using NADPH under a water bath at 37° C. A cold acetonitrile solution containing a Tolbutamide internal standard substance was added at a specified time point to terminate the reaction. The samples were pre-treated and then subjected to semi-quantitative analysis by LC-MS/MS. The retention times of the analytes and Tolbutamide internal standard, the acquisition of chromatograms, and the integration of chromatograms were processed using software Analyst (A Sciex, Framingham, Massachusetts, USA). The in vitro elimination rate constant Ke of the samples was obtained by converting the ratio of the peak area of the samples to the peak area of the internal standard into the residual percentage, and the in vitro clearance rate and the half-life of the test samples were calculated.

[3] = Metabolic stability in human liver microsomes; type: in vitro ADME; settings: for Residual content at 60 min: NADPH, 37° C.; for microsomal CLint: read-out: CLint(mic)
Experimental: as §1

[4] = Caco-2 two-way permeability and efflux; type: in vitro ADME; settings: human; for Papp A→B at 120 min / Papp B→A at 120 min: Caco-2, 120 min incubation
Experimental: Instrument: water purification equipment, ELGA LabWate; biosafety cabinet, NUAIRE; thermostatic CO2 incubator, Thermo; microplate reader, PerkinElmer; LC-MS/MS, AB SCIEX.
Method: A Caco-2 monolayer cell model was used to determine the two-way permeability of the test substances and evaluate whether the test substances were transported by the efflux of a transporter. In the experiment, Caco-2 cells were seeded into a 96-well cell culture plate and cultured for 28 consecutive days for transport assay. The test substances were each administered on two sides. After being incubated for 120 min, the samples at the apical end A, at the basal end B, and with cell lysis were collected and quantitatively determined for the content of the test substances by using a liquid chromatography-tandem mass spectrometry (LC/MS/MS) method. The apparent permeability coefficient (Papp) in the direction from the apical end to the basal end (A-B) and in the direction from the basal end to the apical end (B-A) and the efflux ratio were calculated from the concentrations of the test substances.

human GnRHR = human GnRHR (Homo sapiens (Human), UniProt P30968); test: In vitro antagonistic activity screening (FLIPR calcium fluorescence, Leuprolide acetate stimulation); type: cell-based; settings: HEK293 cells stably expressing human GnRHR
Experimental: Cell: HEK293 cells stably expressing human GnRHR (WuXi AppTec (Shanghai) Co., Ltd.) Equipment: 384-well plate, Greiner; Vi-cell XR Cell Viability Analyzer, Beckman Coulter; incubator, Thermo.
Method: HEK293 cells stably expressing human GnRHR were seeded into a 384-well plate at a density of 20,000/well. Fluo-4 Direct™ No-wash Loading Buffer (Invitrogen) was added to each well the next day, and then the plate was put back into an incubator, incubated at 37° C. for 50 min, and then incubated at room temperature for 10 min. Test compounds were formulated in DMSO. […] Fluorescence values were determined using a FLIPR Tetra high throughput real-time fluorescence detection and assay system. Then 10 μL of Leuprolide acetate was added, and fluorescence values were determined. IC50 and IC90 of the compounds were calculated using Prism.

[5] = molecular target: human hERG potassium channel (Homo sapiens (Human), UniProt Q12809); test: hERG test (QPatch automated patch clamp, CHO cells); type: cell-based
Experimental: Cell: CHO cells stably expressing a human hERG potassium channel (WuXi AppTec (Shanghai) Co., Ltd.) Reagent: physiological solution (pH=7.4): 140 mM NaCl, 4 mM KCl, 2 mM CaCl2), 1 mM MgCl2, 5 mM Glucose, 10 mM HEPES, Osmolarity: about 298 mOsm; external solution (pH=7.4): 80 mM NaCl, 4 mM KCl, 2 mM CaCl2), 1 mM MgCl2, 5 mM Glucose, 60 mM NMDG, 10 mM HEPES, Osmolarity: about 289 mOsm; internal solution (pH=7.4): 10 mM NaCl, 10 mM KCl, 110 mM KF, 10 mM HEPES, EGTA: […], Osmolarity: about 280 mOsm.
Equipment: QPatch high-throughput automated patch clamp system, Sophion.
Method: CHO cells stably expressing a human hERG potassium channel were digested with TrypLE and resuspended in a physiological solution for later use. The single-cell high-impedance sealing and whole-cell mode formation processes were automatically completed by Qpatch. The clamping voltage for the cells was −80 mV. Then a voltage of −50 mV was applied for 80 ms to subtract (current) leakage, and a voltage of +20 mV was applied for 4800 ms to open the hERG channel. The voltage was then reduced to −50 mV and maintained for 5000 ms. This process was used for data collection and analysis. Finally, the voltage was returned to the clamping voltage (−80 mV, 1000 ms). This process was repeated every 20,000 ms. 40 μL of solvent control (external solution+DMSO) was added first, and the test was performed for […] to collect baseline data. Then, 40 μL of each of the test compounds was added at various concentrations, and the test was performed for no less than […]. The compounds were each dissolved in DMSO, with test concentrations being 0.30 μM, 1.00 μM, 3.00 μM, 10.00 μM, and 30.00 μM. The IC50 data for the hERG test were obtained by analyzing using DataControl, Excel2013, and Prism.

[6] = male, rat, plasma, intravenous, i.v 1 mg/kg
[7] = male, rat, plasma, oral, i.g 12 mg/kg
[8] = male, Sprague-Dawley (SD), rat, plasma, iv, i.v 1 mg/kg
[9] = male, Sprague-Dawley (SD), rat, plasma, po, i.g 12 mg/kg
[10] = male, Sprague-Dawley (SD), rat, plasma, po, i.g 12 mg/kg vs i.v 1 mg/kg

Chain of human GnRHR (P30968 whole entry): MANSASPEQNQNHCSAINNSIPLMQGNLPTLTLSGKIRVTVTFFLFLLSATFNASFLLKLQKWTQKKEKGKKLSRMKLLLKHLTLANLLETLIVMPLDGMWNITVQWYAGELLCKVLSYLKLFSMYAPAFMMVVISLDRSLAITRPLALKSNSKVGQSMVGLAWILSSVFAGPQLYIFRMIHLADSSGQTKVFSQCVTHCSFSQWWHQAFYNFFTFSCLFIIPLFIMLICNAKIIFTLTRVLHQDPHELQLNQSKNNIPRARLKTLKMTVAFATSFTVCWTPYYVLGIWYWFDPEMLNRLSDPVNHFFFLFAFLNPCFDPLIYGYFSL
Chain of human hERG potassium channel (Q12809 whole entry): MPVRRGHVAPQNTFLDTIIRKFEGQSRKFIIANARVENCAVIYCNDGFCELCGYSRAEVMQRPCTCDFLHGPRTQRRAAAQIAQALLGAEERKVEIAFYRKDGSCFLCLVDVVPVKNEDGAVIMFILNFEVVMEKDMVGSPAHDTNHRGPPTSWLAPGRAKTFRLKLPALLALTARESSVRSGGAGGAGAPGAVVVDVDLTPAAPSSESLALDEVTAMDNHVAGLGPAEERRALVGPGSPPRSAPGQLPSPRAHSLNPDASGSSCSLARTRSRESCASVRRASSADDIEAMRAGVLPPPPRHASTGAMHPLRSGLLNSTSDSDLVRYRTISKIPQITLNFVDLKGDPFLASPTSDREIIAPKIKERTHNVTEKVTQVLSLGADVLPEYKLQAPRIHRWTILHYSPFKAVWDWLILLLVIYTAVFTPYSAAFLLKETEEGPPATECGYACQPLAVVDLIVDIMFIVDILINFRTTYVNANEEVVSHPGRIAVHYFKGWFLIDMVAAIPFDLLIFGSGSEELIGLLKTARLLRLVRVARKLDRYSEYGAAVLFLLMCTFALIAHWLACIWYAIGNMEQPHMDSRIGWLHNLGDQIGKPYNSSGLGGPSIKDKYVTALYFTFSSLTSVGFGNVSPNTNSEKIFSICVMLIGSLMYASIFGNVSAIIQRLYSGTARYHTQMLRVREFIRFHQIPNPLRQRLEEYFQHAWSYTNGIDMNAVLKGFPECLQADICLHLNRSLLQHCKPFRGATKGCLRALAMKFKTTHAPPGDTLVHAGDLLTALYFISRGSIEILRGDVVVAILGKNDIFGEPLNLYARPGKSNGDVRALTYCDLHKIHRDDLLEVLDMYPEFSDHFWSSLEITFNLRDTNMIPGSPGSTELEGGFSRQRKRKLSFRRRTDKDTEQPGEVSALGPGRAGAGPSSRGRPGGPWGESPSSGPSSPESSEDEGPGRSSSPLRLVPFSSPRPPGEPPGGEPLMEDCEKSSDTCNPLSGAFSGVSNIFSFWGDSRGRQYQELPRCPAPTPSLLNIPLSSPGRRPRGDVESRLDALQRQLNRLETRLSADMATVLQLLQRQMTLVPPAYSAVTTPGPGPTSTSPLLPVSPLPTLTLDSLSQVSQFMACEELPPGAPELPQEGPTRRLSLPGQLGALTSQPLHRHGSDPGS

Row | Residual content at 60 min [2] [%] | CLint scaled [2] [mL/min/kg] | half-life [2] [h] | microsomal CLint [2] [µL/min/mg] | CLint scaled [3] [mL/min/kg] | half-life [3] [h] | Residual content at 60 min [3] [%] | microsomal CLint [3] [µL/min/mg] | Papp A→B at 120 min [4] [×10⁻⁶ cm/s] | Papp B→A at 120 min [4] [×10⁻⁶ cm/s] | Compound | further results
1 |  |  |  |  |  |  |  |  |  |  | CONC(=O)Nc1ccc(-c2sc3c(c2CN(C)CCOC(F)(F)F)c(=O)n(-c2ccc(OC)nn2)c(=O)n3Cc2c(F)cccc2F)cc1 [Compound 1] | T1/2 ([1]; i.g 12 mg/kg): 4.86 ± 3.05 h; Tmax ([1]; i.g 12 mg/kg): 1.13 ± 0.63 h; F (absolute bioavailability) ([1]; i.g 12 mg/kg vs i.v 1 mg/kg): 44.7%; T1/2 ([1]; i.v 1 mg/kg): 2.79 ± 0.87 h; AUC(0-t) [1, 6]: 992 ± 226 ng·h/mL; C0 [1, 6]: 2830 ± 454 ng/mL; MRT last [1, 6]: 0.539 ± 0.041 h; AUC(0-t) [1, 7]: 5320 ± 1210 ng·h/mL; Cmax [1, 7]: 664 ± 123 ng/mL; MRT last [1, 7]: 6.02 ± 0.93 h
2 | 34.5 | 62.6 | 0.663 | 34.8 | 17.5 | 1.19 | 55.5 | 19.4 | 0.126 | 18 | CONC(=O)Nc1ccc(-c2sc3c(c2CN(C)C)c(=O)n(-c2cccc(OC(F)F)c2F)c(=O)n3Cc2c(F)cccc2F)cc1 [Compound 3] | AUC(0-t) [1, 8]: 271 ± 49 ng·h/mL; C0 [1, 8]: 198 ± 4 ng/mL; MRT last [1, 8]: 3.83 ± 0.63 h; half-life [1, 8]: 4.34 ± 1 h; AUC(0-t) [1, 9]: 596 ± 231 ng·h/mL; Cmax [1, 9]: 82.7 ± 10.1 ng/mL; MRT last [1, 9]: 7.3 ± 1.13 h; half-life [1, 9]: 4.11 h; bioavailability [1, 10]: 18.3%; Tmax ([1]; male, Sprague-Dawley (SD), rat, plasma, po, i.g 12 mg/kg, read-out: Tmax): 6 ± 2.83 h
3 | 89.9 | < 13.5 | > 3.1 | < 7.5 | < 6.75 | > 3.1 | 104 | < 7.5 | 0.0933 | 29.4 | CONC(=O)Nc1ccc(-c2oc3c(c2CN(C)C)c(=O)n(-c2ccc(OC)nn2)c(=O)n3Cc2c(F)cccc2F)cc1 [Compound 4] | IC50 (human GnRHR; read-out: Functional IC50): 0.012 µM; IC90 (human GnRHR; read-out: Functional IC90): 0.0923 µM; IC50 ([5]; CHO cells stably expressing human hERG potassium channel): 4.44 µM; Inhibitory activity on the human hERG potassium channel compared with Relugolix ([5]; in words, vs Relugolix): equal to or less than that of Relugolix; Clearance in the SD rat liver microsome (in words) ([2]; SD rat liver microsome): low clearance; efflux ratio at 120 min ([4]; Caco-2, read-out: Efflux ratio): 316
4 | 98.7 | < 13.5 | > 3.1 | < 7.5 | < 6.75 | > 3.1 | 89.0 | < 7.5 | 0.011 | 4.58 | CONC(=O)Nc1ccc(-c2sc3c(c2CN(C)C)c(=O)n(-c2ccc(OC)nn2)c(=O)n3Cc2c(F)cccc2C(F)(F)F)cc1 [Compound 5] | 
5 | 57.1 | 34.9 | 1.19 | 19.4 | < 6.75 | > 3.1 | 95.9 | < 7.5 | 0.0504 | 0.504 | CNc1ccc(-n2c(=O)c3c(CN(C)C)c(-c4ccc(NC(=O)NOC)cc4)sc3n(Cc3c(F)cccc3F)c2=O)nn1 [Compound 6] | 
6 | 47.0 |  | 0.917 | 25.2 |  | 2.82 | 75.5 | 8.2 | 0.0101 | 15.6 | COc1ccc(-n2c(=O)c3c(CN(C)C)c(-c4ccc(NC(=O)NOCC(F)F)cc4)sc3n(Cc3c(F)cccc3F)c2=O)nn1 [Compound 7] | CLint(liver) [2]: 45.4 mL/min/kg; CLint(liver) [3]: 7.38 mL/min/kg
7 | 58.0 |  | 1.41 | 16.4 |  | 3.98 | 86.4 | 5.8 | 0.00716 | 13.8 | CONC(=O)Nc1ccc(-c2sc3c(c2CN(C)C)c(=O)n(-c2ccc(OC)nn2)c(=O)n3Cc2c(F)cccc2F)cc1 [Relugolix, reference compound] | CLint(liver) [2]: 29.5 mL/min/kg; CLint(liver) [3]: 5.22 mL/min/kg; T1/2 ([1]; i.g 12 mg/kg): 3.88 ± 0.57 h; bioavailability [1, 10]: 5.74%
